Measured values taken from ChEMBL document CHEMBL5252512, “Recent Progress in the Development of HIV-1 Protease Inhibitors for the Treatment of HIV/AIDS” (J Med Chem, 2016).
Where a SMILES comes first, the peptide text is derived from it. Bridges are numbered along the chain shown (N, C = ends). Roman numbers before positions name the chains, in order. [ ]: non-standard residue; d: D form. The star is where a group is joined. ξ: configuration not given here. C16 diacid = O=C(O)CCCCCCCCCCCCCCC(=O)*; Phe(4-NH2) = Nc1ccc(C[C@H](N)C(=O)O)cc1; Ile(3ξ) = CCC(C)[C@H](N)C(=O)O; NHPhenethyl = c1ccc(CCN*)cc1

Assays:
[1] = biological target: T1, Human immunodeficiency virus type 1 protease (Human immunodeficiency virus 1, UniProt Q72874); test: Binding affinity to HIV1 protease assessed as inhibition constant
[2] = biological target: T1, Human immunodeficiency virus type 1 protease; test: Binding affinity to wild-type HIV1 protease expressed in Escherichia coli by fluorometric assay
[3] = system: Human immunodeficiency virus 1; test: Antiviral activity against multidrug-resistant HIV1-MM infected in phytohemagglutinin-activated human PBMC cells assessed as inhibition of virus-induced cytopathic effect measured after 7 days by MTT assay; format: functional, organism-based; conditions: Human immunodeficiency virus 1, MM, 168 h
[4] = system: Human immunodeficiency virus 1; test: Ratio of EC50 for antiviral activity against HIV1-JSL to EC50 for antiviral activity against wild type HIV1 ERS104pre; format: functional
[5] = system: Human immunodeficiency virus 1; test: Antiviral activity against multidrug-resistant HIV1-G infected in phytohemagglutinin-activated human PBMC cells assessed as inhibition of virus-induced cytopathic effect measured after 7 days by MTT assay; format: functional, organism-based; conditions: Human immunodeficiency virus 1, G, 168 h
[6] = system: Human immunodeficiency virus 1; test: Antiviral activity against darunavir-resistant HIV1 20P infected in phytohemagglutinin-activated human PBMC cells assessed as inhibition of virus-induced cytopathic effect measured after 7 days by MTT assay; format: functional, organism-based; conditions: Human immunodeficiency virus 1, 20P, 168 h
[7] = system: Human immunodeficiency virus 1; test: Ratio of EC50 for antiviral activity against HIV1-MM to EC50 for antiviral activity against wild type HIV1 ERS104pre; format: functional
[8] = system: Human immunodeficiency virus 1; test: Ratio of EC50 for antiviral activity against HIV1-G to EC50 for antiviral activity against wild type HIV1 ERS104pre; format: functional
[9] = system: Human immunodeficiency virus 1; test: Ratio of EC50 for antiviral activity against HIV1-B to EC50 for antiviral activity against wild type HIV1 ERS104pre; format: functional
[10] = system: Human immunodeficiency virus 1; test: Ratio of EC50 for antiviral activity against HIV1-C to EC50 for antiviral activity against wild type HIV1 ERS104pre; format: functional
[11] = system: Human immunodeficiency virus 1; test: Antiviral activity against multidrug-resistant HIV1-JSL infected in phytohemagglutinin-activated human PBMC cells assessed as inhibition of virus-induced cytopathic effect measured after 7 days by MTT assay; format: functional, organism-based; conditions: Human immunodeficiency virus 1, JSL, 168 h
[12] = system: Human immunodeficiency virus 1; test: Antiviral activity against darunavir-resistant HIV1 10P infected in phytohemagglutinin-activated human PBMC cells assessed as inhibition of virus-induced cytopathic effect measured after 7 days by MTT assay; format: functional, organism-based; conditions: Human immunodeficiency virus 1, 10P, 168 h
[13] = system: Human immunodeficiency virus 1; test: Antiviral activity against multidrug-resistant HIV1-TM infected in phytohemagglutinin-activated human PBMC cells assessed as inhibition of virus-induced cytopathic effect measured after 7 days by MTT assay; format: functional, organism-based; conditions: Human immunodeficiency virus 1, TM, 168 h
[14] = system: Human immunodeficiency virus 1; test: Antiviral activity against wild type HIV1 ERS104pre infected in human PBMC cells assessed as inhibition of virus-induced cytopathic effect measured after 7 days by MTT assay; format: functional, organism-based; conditions: Human immunodeficiency virus 1, ERS104pre, 168 h
[15] = system: Human immunodeficiency virus 1; test: Antiviral activity against multidrug-resistant HIV1-C infected in phytohemagglutinin-activated human PBMC cells assessed as inhibition of virus-induced cytopathic effect measured after 7 days by MTT assay; format: functional, organism-based; conditions: Human immunodeficiency virus 1, C, 168 h
[16] = system: Human immunodeficiency virus 1; test: Antiviral activity against multidrug-resistant HIV1-B infected in phytohemagglutinin-activated human PBMC cells assessed as inhibition of virus-induced cytopathic effect measured after 7 days by MTT assay; format: functional, organism-based; conditions: Human immunodeficiency virus 1, B, 168 h
[17] = system: Human immunodeficiency virus 1; test: Ratio of EC50 for antiviral activity against HIV1-TM to EC50 for antiviral activity against wild type HIV1 ERS104pre; format: functional
[18] = biological target: T1, Human immunodeficiency virus type 1 protease; test: Inhibition of recombinant HIV1 Protease
[19] = system: Human immunodeficiency virus 1; test: Antiviral activity against HIV1 LAI infected in human MT2 cells assessed as inhibition of virus-induced cytopathic effect by MTT assay; format: functional, organism-based; conditions: Human immunodeficiency virus 1, LAI
[20] = Apparent permeability in rat astrocytes/rat pericytes/monkey endothelial cells triple cell co-culture system incubated for 30 mins by spectrophotometric analysis; format: ADME, cell-based
[21] = system: Human immunodeficiency virus 1; test: Antiviral activity against HIV1 T13436 infected in human MT4 cells expressing LTR and EGFP assessed as inhibition of virus-induced cytopathic effect by fluorescence microscopic analysis; format: functional, organism-based; conditions: Human immunodeficiency virus 1, T13436, MT4
[22] = system: Human immunodeficiency virus 1; test: Antiviral activity against wild type HIV1 r13205 infected in human MT4 cells expressing LTR and EGFP assessed as inhibition of virus-induced cytopathic effect by fluorescence microscopic analysis; format: functional, organism-based; conditions: Human immunodeficiency virus 1, r13205, MT4
[23] = system: Human immunodeficiency virus 1; test: Antiviral activity against HIV1 T13632 infected in human MT4 cells expressing LTR and EGFP assessed as inhibition of virus-induced cytopathic effect by fluorescence microscopic analysis; format: functional, organism-based; conditions: Human immunodeficiency virus 1, T13632, MT4
[24] = system: Human immunodeficiency virus 1; test: Antiviral activity against HIV1 T21055 infected in human MT4 cells expressing LTR and EGFP assessed as inhibition of virus-induced cytopathic effect by fluorescence microscopic analysis; format: functional, organism-based; conditions: Human immunodeficiency virus 1, T21055, MT4
[25] = system: Human immunodeficiency virus 1; test: Antiviral activity against HIV1 T20760 infected in human MT4 cells expressing LTR and EGFP assessed as inhibition of virus-induced cytopathic effect by fluorescence microscopic analysis; format: functional, organism-based; conditions: Human immunodeficiency virus 1, T20760, MT4
[26] = system: Human immunodeficiency virus 1; test: Antiviral activity against HIV1 T21217 infected in human MT4 cells expressing LTR and EGFP assessed as inhibition of virus-induced cytopathic effect by fluorescence microscopic analysis; format: functional, organism-based; conditions: Human immunodeficiency virus 1, T21217, MT4
[27] = system: Human immunodeficiency virus 1; test: Antiviral activity against HIV1 T13717 infected in human MT4 cells expressing LTR and EGFP assessed as inhibition of virus-induced cytopathic effect by fluorescence microscopic analysis; format: functional, organism-based; conditions: Human immunodeficiency virus 1, T13717, MT4
[28] = system: Human immunodeficiency virus 1; test: Antiviral activity against HIV1 T13572 infected in human MT4 cells expressing LTR and EGFP assessed as inhibition of virus-induced cytopathic effect by fluorescence microscopic analysis; format: functional, organism-based; conditions: Human immunodeficiency virus 1, T13572, MT4

COC(=O)[C@@H](NC(=O)[C@H](CC(C)C)NC(=O)[C@@H](NC(=O)CCCOc1ccc2ccc(OCCCC(=O)N[C@H](CCCCNC(=O)OCc3ccccc3)C(=O)Nc3cccn(CC(N)=O)c3=O)cc2c1)C(C)C)C(C)C
Ki [1]: 40 nM

O=C1C[C@@H](NC(=O)[C@H](OCc2cccc(Br)c2)[C@H](O)[C@@H](O)[C@@H](OCc2cccc(Br)c2)C(=O)N[C@H]2c3ccccc3C[C@H]2O)c2ccccc21
Ki [1]: 19 nM

COc1cccc2c1C(=O)C[C@H]2NC(=O)[C@H](OCc1cccc(Br)c1)[C@H](O)[C@@H](O)[C@@H](OCc1cccc(Br)c1)C(=O)N[C@H]1c2ccccc2C[C@H]1O
Ki [1]: 11 nM

CCC(C)N(CC(=O)N(CC(N)=O)Cc1ccc(N)cc1)C(=O)CN(CCSC)C(=O)CCCCCCCCCCCCCCC(=O)N(CC(N)=O)CC(=O)N(CC(=O)O)Cc1ccccc1 (stereo not drawn)
Ki [1]: 801 nM

COc1ccc(S(=O)(=O)N(CC(C)C)C[C@@H](O)[C@H](Cc2ccccc2)NC(=O)O[C@H]2CO[C@H]3C[C@@H]4OCC[C@@H]4[C@H]32)cc1
Ki [1]: 1.39 nM

O=C(Cc1cccc2ccccc12)Nc1ccccc1CN1C[C@H](O)[C@@H](O)CN(Cc2ccccc2NC(=O)Cc2cccc3ccccc23)S1(=O)=O
Ki [2]: 20 nM

COc1ccc(S(=O)(=O)N(CC(C)C)C[C@@H](O)[C@H](Cc2ccccc2)NC(=O)O[C@@H]2CO[C@@H]3O[C@H]4OCC[C@H]4[C@@H]32)cc1
EC50 [3]: 787 nM
Ratio EC50 [4]: >3
EC50 [5]: 656 nM
EC50 [6]: > 1000 nM
Ratio EC50 [7]: 2
Ratio EC50 [8]: 2
Ratio EC50 [9]: 2
Ratio EC50 [10]: 1
EC50 [11]: > 1000 nM
EC50 [12]: > 1000 nM
EC50 [13]: 530 nM
EC50 [14]: 347 nM
EC50 [15]: 514 nM
EC50 [16]: 612 nM
Ratio EC50 [17]: 2

CC(C)C[C@H](NC(=O)[C@@H](NC(=O)CCCCCCCCCCCCCCC(=O)N[C@@H](CC(N)=O)C(=O)N[C@@H](Cc1ccccc1)C(=O)O)[C@@H](C)O)C(=O)NCCc1ccc(N)cc1
IC50 [18]: 650 nM

COc1ccc(S(=O)(=O)N(CC(C)C)C[C@@H](O)[C@@H]2Cc3ccc(cc3)OC/C=C/CCc3c(O)cccc3C(=O)N2)cc1
Ki [1]: 0.2 nM
IC50 [19]: 210 nM

Cc1c(O)cccc1C(=O)N[C@@H](CSc1ccccc1)[C@H](O)CN1C[C@H]2CCCC[C@H]2C[C@H]1C(=O)NC(C)(C)C
EC50 [15]: 250 nM

CC(C)C[C@H](NC(=O)[C@@H](NC(=O)CCCCCCCCCCCCCCC(=O)N[C@@H](CC(N)=O)C(=O)N[C@@H](Cc1ccccc1)C(=O)O)[C@@H](C)O)C(=O)NCCc1ccccc1 (I: Asn-Phe-OH / II: Thr-Leu-NHPhenethyl; linker I:N-II:N via C16 diacid)
IC50 [18]: 5800 nM

CCC(C)[C@H](NC(=O)[C@H](CCSC)NC(=O)CCCCCCCCCCCCCCC(=O)N[C@@H](CC(N)=O)C(=O)N[C@@H](Cc1ccccc1)C(=O)O)C(=O)N[C@@H](Cc1ccc(N)cc1)C(N)=O (stereo partly drawn) ({Phe-Asn-C16 diacid}-Met-[Ile(3ξ)]-[Phe(4-NH2)]-NH2)
Ki [1]: 85 nM

Cn1c(=O)c2c(ncn2C)n(C)c1=O [CAFFEINE]
Papp at 0.5 h [20]: 100 ×10⁻⁶ cm/s

Cc1cccc(C)c1OCC(=O)N[C@@H](Cc1ccccc1)[C@@H](O)C[C@H](Cc1ccccc1)NC(=O)[C@H](C(C)C)N1CCCNC1=O [LOPINAVIR]
EC50 [5]: > 160 nM
EC50 [21]: 263 nM
EC50 [22]: 28 nM
EC50 [6]: > 1000 nM
EC50 [23]: 1600 nM
EC50 [24]: 426 nM
EC50 [25]: 112 nM
EC50 [26]: 198 nM
EC50 [11]: > 700 nM
EC50 [12]: > 1000 nM
EC50 [14]: 7 nM
EC50 [27]: 1900 nM
EC50 [15]: > 436 nM
EC50 [28]: 511 nM
EC50 [16]: > 300 nM
